This is an account of results in patent publication US10633394B2, “Heterocyclic derivatives and use thereof” (C & C RESEARCH LABORATORIES, priority 2014, dated 2020).

Type in all cases: cell-based
Test [1] deals with MDA-MB-468. Nature of the test: Cell growth inhibition assay (CellTiter-Glo), breast cancer cell line MDA-MB-468. Conditions: Homo sapiens; MDA-MB-468 cells, 96 hours. As for the experimental part:
(§1) The inhibitory effects of the compounds of the present invention against the growth of cancer cells were evaluated as shown below. The cancer cell lines including stomach cancer cell line (NCI-N87) and breast cancer cell line (MDA-MB-468) were cultured under the protocol provided by each supplier. Each type of cells to be used in experiments was sub-cultured in a 96-well plate by counting the exact number of cells using Tali™ Image-based Cytometer (Life Technologies). In a 96-well plate, NCI-N87 was employed with 5,000 cells/well; and MDA-MB-468 was employed with 10,000 cells/well. The cells were treated with the compounds listed in Examples which were diluted in various concentrations. Upon completion of the compounds treatment, NCI-N87 cells were cultured at 37° C. under 5% CO2 for 96 hours, and MDA-MB-468 cells were cultured at 37° C. in air for 96 hours. Subsequently, the cells were observed under microscope and drug precipitation and particular findings were investigated and recorded. And then, the 96-well plate was placed at room temperature for 30 minutes, added with 20 μL/well of CellTiter-Glo solution (Cat No. G7573, Promega) and shaken for 10 minutes, followed by being subjected to the measurement using PHERAstar™ microplate reader (BMG LABTECH) according to the supplier's general luminometer protocol. Wells where only culture liquid added without cell plating were used as a negative control, whereas wells where culture liquid containing 0.1% DMSO instead of the compounds listed in Examples were used as a positive control.
A general note: ATP-based viability assays read luminescence as a measure of living cells.

For test [2], the target named is T1, STAT3 (Homo sapiens, UniProt P40763).
T1 construct: plasmid pSTAT3-TA-luc), which contains a stably operating STAT3 promoter; endogenous in cells
Nature of the test: STAT3 reporter gene (luciferase) assay in LNCaP stable cell line stimulated with IL-6. Conditions: LNCaP stable cell line (pSTAT3-TA-luc), IL-6 10 ng/mL, 24 hours. As for the experimental part: 1-1) Experiment on the Inhibition of STAT3 Activity
A human prostate cancer cell line (LNCaP stable cell line; plasmid pSTAT3-TA-luc), which contains a stably operating STAT3 promoter, was cultured in RPMI1640 medium (Cat No. 11875, Life Technologies) containing 10% fetal bovine serum (FBS) (Cat No. SH30396, Thermo Scientific) and 150 μg/mL G-418 solution (Cat No. 04 727 894 001, Roche). The reporter gene assay using LNCaP stable cell line was performed in RPMI1640 medium containing 3% DCC-FBS without G-418 solution. LNCaP stable cells were plated in two (2) white 96-well plates with 30,000 cells/50 μL in each well. The cells were cultured at 37° C., under 5% CO2 for 24 hours, and then treated with the compounds listed in Examples which were diluted in various concentrations. Subsequently, IL-6 was added to each well with a final concentration of 10 ng/mL. Upon completion of the treatment with the compounds and IL-6, the cells were cultured at 37° C., under 5% CO2 for 24 hours. The plates were observed under microscope and drug precipitation and particular findings were investigated and recorded.
The luciferase assay and the cell viability assay were performed respectively with one of the two plates. For the luciferase assay, the liquid media in the 96-well plate was removed, and then, 20 μL of passive cell lysis buffer was added to each well. After shaking the plate for 30 minutes, luciferase activities of each well were measured in a PHERAstar™ microplate reader (BMG LABTECH) using a luciferase assay system (Cat No. E1501, Promega). For the cell viability assay, the 96-well plate was placed at room temperature for 30 minutes, added with 20 μL/well of CellTiter-Glo solution (Cat No. G7573, Promega), and shaken for 10 minutes in order to measure cytotoxicity caused by the compounds listed in Examples with a PHERAstar™ microplate reader (BMG LABTECH). Wells without 0.1% DMSO and stimulation were used as a negative control and wells with 0.1% DMSO and stimulation were used as a positive control.
The results of evaluation on the inhibitory effect of the compounds listed in the Examples on the dimerization of STAT3 and STAT1 obtained via the STAT3 and STAT1 reporter gene assays are shown in Table 6 below.

In test [3] the test system is NCI-N87. Nature of the test: Cell growth inhibition assay (CellTiter-Glo), stomach cancer cell line NCI-N87. To be noted: Homo sapiens; NCI-N87 cells, 96 hours. As for the experimental part:
as §1

T1 sequence (P40763 whole entry): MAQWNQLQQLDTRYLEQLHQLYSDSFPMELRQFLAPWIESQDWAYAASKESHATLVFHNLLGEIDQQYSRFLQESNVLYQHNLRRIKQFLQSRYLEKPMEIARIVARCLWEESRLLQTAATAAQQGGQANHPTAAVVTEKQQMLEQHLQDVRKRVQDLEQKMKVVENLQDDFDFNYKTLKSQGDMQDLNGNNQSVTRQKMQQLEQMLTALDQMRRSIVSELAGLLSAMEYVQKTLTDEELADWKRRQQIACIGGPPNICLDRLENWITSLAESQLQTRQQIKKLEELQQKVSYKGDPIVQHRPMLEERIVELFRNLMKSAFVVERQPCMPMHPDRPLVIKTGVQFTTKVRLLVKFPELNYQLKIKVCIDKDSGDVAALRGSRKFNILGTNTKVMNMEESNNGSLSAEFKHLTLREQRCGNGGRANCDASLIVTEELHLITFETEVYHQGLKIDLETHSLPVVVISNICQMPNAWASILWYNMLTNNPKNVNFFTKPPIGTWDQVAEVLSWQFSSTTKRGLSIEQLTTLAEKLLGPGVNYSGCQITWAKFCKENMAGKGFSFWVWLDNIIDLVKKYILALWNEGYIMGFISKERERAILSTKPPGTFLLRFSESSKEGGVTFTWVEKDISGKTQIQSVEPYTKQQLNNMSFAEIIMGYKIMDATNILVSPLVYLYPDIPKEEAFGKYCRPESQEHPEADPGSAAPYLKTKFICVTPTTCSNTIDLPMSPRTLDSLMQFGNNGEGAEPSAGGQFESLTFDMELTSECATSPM

As usually defined, the IC50 is the concentration that inhibits the measured activity by half. A higher IC50 goes with weaker potency in that assay. For `CS(=O)(=O)C1CCOc2cc3sc(C(=O)Nc4cc(Cl)nc(Oc5cc(Cl)cc(Cl)c5)c4)cc3cc21` (stereo not drawn) [Example 18, N-(2-chloro-6-(3,5-dichlorophenoxy)pyridin-4-yl)-4-(methylsulfonyl)-3,4-dihydro-2H-thieno[3,2-g]chromene-7-carboxamide], the values for the IC50 in test [1], in test [2] and in test [3] were 0.0043 µM, 0.015 µM and 0.02 µM, respectively.

Regarding `COc1cc(F)cc(Oc2cc(NC(=O)c3cc4cc5c(cc4s3)OCCC5S(C)(=O)=O)cc(Cl)n2)c1` (stereo not drawn) [Example 32, N-(2-chloro-6-(3-fluoro-5-methoxyphenoxy)pyridin-4-yl)-4-(methylsulfonyl)-3,4-dihydro-2H-thieno[3,2-g]chromene-7-carboxamide], the IC50 in test [1] amounted to 0.0089 µM; in test [2], 0.016 µM; in test [3] it was 0.031 µM.

Take `C[C@]1(S(C)(=O)=O)CCOc2cc3sc(C(=O)Nc4cc(Cl)nc(Oc5ccc(Cl)cc5)c4)cc3cc21` [Example 47, (S)—N-(2-chloro-6-(4-chlorophenoxy)pyridin-4-yl)-4-methyl-4-(methylsulfonyl)-3,4-dihydro-2H-thieno[3,2-g]chromene-7-carboxamide]: the results for the IC50 in test [1], in test [2] and in test [3] were 0.0017 µM, 0.0045 µM and 0.0064 µM, respectively.

As for `COc1cc(Cl)ccc1Oc1cc(NC(=O)c2cc3cc4c(cc3s2)OCCC4S(C)(=O)=O)cc(Cl)n1` (stereo not drawn) [Example 42, N-(2-chloro-6-(4-chloro-2-methoxyphenoxy)pyridin-4-yl)-4-(methylsulfonyl)-3,4-dihydro-2H-thieno[3,2-g]chromene-7-carboxamide], the IC50 in test [1] came to 0.0078 µM; in test [2] it was 0.023 µM; in test [3], 0.024 µM.

For `CN1CCN(S(C)(=O)=O)c2cc3cc(C(=O)Nc4cc(Cl)nc(Oc5ccc(Cl)cc5)c4)sc3cc21` [Example 7, N-(2-chloro-6-(4-chlorophenoxy)pyridin-4-yl)-4-methyl-1-(methylsulfonyl)-1,2,3,4-tetrahydrothieno[2,3-g]quinoxaline-7-carboxamide], the IC50 amounted to 0.0065 µM in test [1], 0.012 µM in test [2] and 0.027 µM in test [3].

On to `CS(=O)(=O)C1CCCc2cc3sc(C(=O)Nc4cc(Cl)nc(Oc5ccc(Cl)cc5)c4)cc3cc21` (stereo not drawn) [Example 10, N-(2-chloro-6-(4-chlorophenoxy)pyridin-4-yl)-5-(methylsulfonyl)-5,6,7,8-tetrahydronaphtho[2,3-b]thiophene-2-carboxamide], for which the figures for the IC50 in test [1], in test [2] and in test [3] were 0.0019 µM, 0.0026 µM and 0.006 µM, respectively.

On to `O=C(Nc1cc(Cl)nc(Oc2ccc(Cl)cc2)c1)c1cc2cc3c(cc2s1)OCCC3n1cccn1` (stereo not drawn) [Example 52, N-(2-chloro-6-(4-chlorophenoxy)pyridin-4-yl)-4-(1H-pyrazol-1-yl)-3,4-dihydro-2H-thieno[3,2-g]chromene-7-carboxamide], for which the 50% inhibitory concentration (IC50) in test [1] is 0.12 µM; in test [2], 0.1 µM; in test [3], 0.4 µM.

As for `CC1(S(C)(=O)=O)CCOc2cc3sc(C(=O)Nc4cc(Cl)nc(Oc5ccc(Cl)cc5)c4)cc3cc21` (stereo not drawn) [Example 11, N-(2-chloro-6-(4-chlorophenoxy)pyridin-4-yl)-4-methyl-4-(methylsulfonyl)-3,4-dihydro-2H-thieno[3,2-g]chromene-7-carboxamide], the IC50 in test [1] is 0.0052 µM; in test [2], 0.006 µM; in test [3] it was 0.01 µM.

For the compound `CS(=O)(=O)C1CCCOc2cc3sc(C(=O)Nc4cc(Cl)nc(Oc5ccc(Cl)cc5)c4)cc3cc21` (stereo not drawn) [Example 9, N-(2-chloro-6-(4-chlorophenoxy)pyridin-4-yl)-5-(methylsulfonyl)-2,3,4,5-tetrahydrothieno[3′,2′:4,5]benzo[1,2-b]oxepine-8-carboxamide], the figures for the IC50 in test [1], in test [2] and in test [3] were 0.023 µM, 0.029 µM and 0.067 µM, respectively.

Consider `CS(=O)(=O)C1CCOc2cc3sc(C(=O)Nc4cc(Cl)nc(Oc5cccc(OC(F)(F)F)c5)c4)cc3cc21` (stereo not drawn) [Example 29, N-(2-chloro-6-(3-(trifluoromethoxy)phenoxy)pyridin-4-yl)-4-(methylsulfonyl)-3,4-dihydro-2H-thieno[3,2-g]chromene-7-carboxamide], for which the IC50 in test [1] came to 0.0029 µM; in test [2], 0.0059 µM; in test [3], 0.0046 µM.

With `COc1ccc(Oc2cc(NC(=O)c3cc4cc5c(cc4s3)OCCC5S(C)(=O)=O)cc(Cl)n2)cc1` (stereo not drawn) [Example 22, N-(2-chloro-6-(4-methoxyphenoxy)pyridin-4-yl)-4-(methylsulfonyl)-3,4-dihydro-2H-thieno[3,2-g]chromene-7-carboxamide], the IC50 in test [1] worked out at 0.017 µM; in test [2], 0.03 µM; in test [3], 0.071 µM.

As for `CS(=O)(=O)[C@H]1CCOc2cc3sc(C(=O)Nc4cc(Cl)nc(Oc5ccc(Cl)cc5)c4)cc3cc21` [Example 43, (S)—N-(2-chloro-6-(4-chlorophenoxy)pyridin-4-yl)-4-(methylsulfonyl)-3,4-dihydro-2H-thieno[3,2-g]chromene-7-carboxamide], the IC50 in test [1] is 0.0029 µM; in test [2], 0.018 µM; in test [3], 0.015 µM.

Turning to `CS(=O)(=O)C1CCOc2cc3sc(C(=O)Nc4cc(Cl)nc(Oc5ccc(C(F)(F)F)cc5)c4)cc3cc21` (stereo not drawn) [Example 17, N-(2-chloro-6-(4-(trifluoromethyl)phenoxy)pyridin-4-yl)-4-(methylsulfonyl)-3,4-dihydro-2H-thieno[3,2-g]chromene-7-carboxamide], the figures for the IC50 in test [1], in test [2] and in test [3] were 0.0023 µM, 0.0039 µM and 0.011 µM, respectively.

As for `COc1cc(Cl)cc(Oc2cc(NC(=O)c3cc4cc5c(cc4s3)OCC[C@@H]5S(C)(=O)=O)cc(Cl)n2)c1` [Example 49, (S)—N-(2-chloro-6-(3-chloro-5-methoxyphenoxy)pyridin-4-yl)-4-(methylsulfonyl)-3,4-dihydro-2H-thieno[3,2-g]chromene-7-carboxamide], the IC50 was found to be 0.0059 µM in test [1], 0.0066 µM in test [2] and 0.018 µM in test [3].

As to `CS(=O)(=O)C1CCOc2cc3sc(C(=O)Nc4cc(Cl)nc(Oc5ccc(Cl)c(Cl)c5)c4)cc3cc21` (stereo not drawn) [Example 24, N-(2-chloro-6-(3,4-dichlorophenoxy)pyridin-4-yl)-4-(methylsulfonyl)-3,4-dihydro-2H-thieno[3,2-g]chromene-7-carboxamide], the results for the IC50 in test [1], in test [2] and in test [3] were 0.0024 µM, 0.0062 µM and 0.0038 µM, respectively.

`CS(=O)(=O)C1(F)CCOc2cc3sc(C(=O)Nc4cc(Cl)nc(Oc5ccc(Cl)cc5)c4)cc3cc21` (stereo not drawn) [Example 13, N-(2-chloro-6-(4-chlorophenoxy)pyridin-4-yl)-4-fluoro-4-(methylsulfonyl)-3,4-dihydro-2H-thieno[3,2-g]chromene-7-carboxamide]: the IC50 worked out at 0.0066 µM in test [1], 0.0081 µM in test [2] and 0.025 µM in test [3].

For the compound `CS(=O)(=O)C1CCOc2cc3sc(C(=O)Nc4cc(Cl)nc(Oc5ccc(Cl)c(F)c5)c4)cc3cc21` (stereo not drawn) [Example 19, N-(2-chloro-6-(4-chloro-3-fluorophenoxy)pyridin-4-yl)-4-(methylsulfonyl)-3,4-dihydro-2H-thieno[3,2-g]chromene-7-carboxamide], the IC50 was determined as 0.0025 µM in test [1], 0.0084 µM in test [2] and 0.0061 µM in test [3].
